Source: ChEMBL document CHEMBL1201862, “PubChem BioAssay data set” (2004)
Counter-ions that a name gives are not always drawn. Active and inactive are the calls of the source.

Columns and labels:
[1] = reduction of Shn3 3'UTR-driven luciferase in osteoblasts – cell-based, Clone20 osteoblasts, firefly luciferase, cherry-picked, dose response (AID 624132); format: functional;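 also: firefly luciferase luminescence from reporter carrying the Shn3 3'UTR in osteoblasts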
[2] = loss of viability in HepG2 cells – cell-based, CellTiter-Glo, cherry-picked, cytotoxicity control for Shn3 inhibitor project, dose response (AID 624134); format: functional
[3] = non-specific 3'UTR reporter inhibition in Clone20-Shn3RL – cell-based, Renilla luciferase, cherry-picked, counter-screen for Shn3 inhibitor project, dose response (AID 624133); format: functional
cells = format: functional
Troponin, cardiac muscle = Troponin, cardiac muscle (Homo sapiens, UniProt P19429+P45379+P63316); test: Fluorescence-based biochemical high throughput dose response assay for activators of the calcium sensitivity of cardiac Regulated Thin Filaments (RTF). [Related pubchem assays (depositor defined):AID493008, AID493018, AID504382, AID504383]; format: protein-complex assay
Escherichia coli = test: microbe, parasite or virus in culture
[4] = biological target: Photoreceptor-specific nuclear receptor (Homo sapiens, UniProt Q9Y5X4); format: functional, cell-based;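 also: CHO-S cells with Gal4-NCOR and VP16-NR2E3 two-hybrid luciferase reporter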
Chain of Photoreceptor-specific nuclear receptor (Q9Y5X4 whole entry, the tested form may be a part): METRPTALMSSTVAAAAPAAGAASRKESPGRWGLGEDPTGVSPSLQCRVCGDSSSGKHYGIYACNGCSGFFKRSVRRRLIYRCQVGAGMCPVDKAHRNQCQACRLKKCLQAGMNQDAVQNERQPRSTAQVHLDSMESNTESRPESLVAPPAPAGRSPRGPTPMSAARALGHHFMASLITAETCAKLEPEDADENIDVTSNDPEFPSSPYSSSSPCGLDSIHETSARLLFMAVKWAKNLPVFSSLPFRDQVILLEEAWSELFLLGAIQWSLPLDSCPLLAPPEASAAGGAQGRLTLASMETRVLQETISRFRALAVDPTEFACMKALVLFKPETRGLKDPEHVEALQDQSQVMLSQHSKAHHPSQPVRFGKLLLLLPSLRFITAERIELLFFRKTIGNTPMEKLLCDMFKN

[5] = biological target: Eukaryotic translation initiation factor 4E (Mus musculus, UniProt P63073); test: blockers of eIF4G binding by eIF4E – biochemical, TR-FRET, dose response (AID 855); format: functional;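 also: potency for disrupting eIF4E binding to eIF4GI seen as loss of FRET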
Chain of Eukaryotic translation initiation factor 4E (P63073 whole entry): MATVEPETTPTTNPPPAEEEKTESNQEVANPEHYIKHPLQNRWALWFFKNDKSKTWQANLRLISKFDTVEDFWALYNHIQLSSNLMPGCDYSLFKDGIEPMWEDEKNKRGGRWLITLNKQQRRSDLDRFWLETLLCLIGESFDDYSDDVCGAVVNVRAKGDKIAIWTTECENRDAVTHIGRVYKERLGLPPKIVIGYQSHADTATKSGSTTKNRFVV

Caspase-3 = biological target: T1, Caspase-3 (Homo sapiens, UniProt P42574); format: functional;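 also: Dose-response selectivity test against caspase-3 for candidate inhibitors of sentrin-specific proteases (SENPs)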
T1 sequence (P42574 whole entry): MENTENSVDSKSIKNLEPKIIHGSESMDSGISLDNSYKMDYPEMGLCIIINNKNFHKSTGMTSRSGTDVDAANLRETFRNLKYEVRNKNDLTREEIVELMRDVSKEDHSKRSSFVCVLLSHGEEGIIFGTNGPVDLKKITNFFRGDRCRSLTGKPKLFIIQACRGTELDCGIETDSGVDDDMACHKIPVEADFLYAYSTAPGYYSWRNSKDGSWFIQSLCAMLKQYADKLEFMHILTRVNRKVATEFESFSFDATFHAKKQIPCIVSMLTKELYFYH

[6] = biological target: T2, Sentrin-specific protease 7 (Homo sapiens, UniProt Q9BQF6); format: functional;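 also: Luminescence-based dose-response confirmation of ultra-high-throughput screening hits, measuring inhibition of SENP7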
T2 sequence (Q9BQF6 whole entry): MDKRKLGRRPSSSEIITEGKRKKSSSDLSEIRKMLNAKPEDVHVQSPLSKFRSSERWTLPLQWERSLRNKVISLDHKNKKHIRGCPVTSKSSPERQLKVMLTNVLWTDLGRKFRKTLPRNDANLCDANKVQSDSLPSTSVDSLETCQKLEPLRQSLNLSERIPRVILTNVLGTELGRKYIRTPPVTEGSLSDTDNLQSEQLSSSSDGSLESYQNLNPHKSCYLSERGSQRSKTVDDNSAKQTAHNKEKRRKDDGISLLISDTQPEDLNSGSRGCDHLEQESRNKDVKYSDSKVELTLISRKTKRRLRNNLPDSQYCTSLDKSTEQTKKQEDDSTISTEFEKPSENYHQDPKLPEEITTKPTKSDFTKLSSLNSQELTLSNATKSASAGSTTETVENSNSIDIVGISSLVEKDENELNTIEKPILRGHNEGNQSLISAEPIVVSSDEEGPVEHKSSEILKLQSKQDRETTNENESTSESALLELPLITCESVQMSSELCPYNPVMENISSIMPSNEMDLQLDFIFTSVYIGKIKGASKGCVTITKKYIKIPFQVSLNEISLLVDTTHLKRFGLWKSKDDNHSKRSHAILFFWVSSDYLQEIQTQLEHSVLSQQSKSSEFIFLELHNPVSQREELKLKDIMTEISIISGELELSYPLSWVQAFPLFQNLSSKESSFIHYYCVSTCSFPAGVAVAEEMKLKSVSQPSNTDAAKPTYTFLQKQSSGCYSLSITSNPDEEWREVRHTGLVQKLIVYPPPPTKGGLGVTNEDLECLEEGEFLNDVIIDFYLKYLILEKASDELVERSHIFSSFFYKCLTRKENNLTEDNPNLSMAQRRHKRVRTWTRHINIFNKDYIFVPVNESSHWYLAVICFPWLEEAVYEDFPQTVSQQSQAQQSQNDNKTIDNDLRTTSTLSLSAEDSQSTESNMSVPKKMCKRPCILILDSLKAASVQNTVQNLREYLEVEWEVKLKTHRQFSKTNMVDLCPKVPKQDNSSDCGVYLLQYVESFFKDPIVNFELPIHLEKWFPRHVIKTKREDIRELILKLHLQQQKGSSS

[7] = biological target: T3, Sentrin-specific protease 6 (Homo sapiens, UniProt Q9GZR1); format: functional;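 also: Luminescence-based dose-response confirmatory assay of SENP6 inhibition, following up an ultra-high-throughput screen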
T3 sequence (Q9GZR1 whole entry): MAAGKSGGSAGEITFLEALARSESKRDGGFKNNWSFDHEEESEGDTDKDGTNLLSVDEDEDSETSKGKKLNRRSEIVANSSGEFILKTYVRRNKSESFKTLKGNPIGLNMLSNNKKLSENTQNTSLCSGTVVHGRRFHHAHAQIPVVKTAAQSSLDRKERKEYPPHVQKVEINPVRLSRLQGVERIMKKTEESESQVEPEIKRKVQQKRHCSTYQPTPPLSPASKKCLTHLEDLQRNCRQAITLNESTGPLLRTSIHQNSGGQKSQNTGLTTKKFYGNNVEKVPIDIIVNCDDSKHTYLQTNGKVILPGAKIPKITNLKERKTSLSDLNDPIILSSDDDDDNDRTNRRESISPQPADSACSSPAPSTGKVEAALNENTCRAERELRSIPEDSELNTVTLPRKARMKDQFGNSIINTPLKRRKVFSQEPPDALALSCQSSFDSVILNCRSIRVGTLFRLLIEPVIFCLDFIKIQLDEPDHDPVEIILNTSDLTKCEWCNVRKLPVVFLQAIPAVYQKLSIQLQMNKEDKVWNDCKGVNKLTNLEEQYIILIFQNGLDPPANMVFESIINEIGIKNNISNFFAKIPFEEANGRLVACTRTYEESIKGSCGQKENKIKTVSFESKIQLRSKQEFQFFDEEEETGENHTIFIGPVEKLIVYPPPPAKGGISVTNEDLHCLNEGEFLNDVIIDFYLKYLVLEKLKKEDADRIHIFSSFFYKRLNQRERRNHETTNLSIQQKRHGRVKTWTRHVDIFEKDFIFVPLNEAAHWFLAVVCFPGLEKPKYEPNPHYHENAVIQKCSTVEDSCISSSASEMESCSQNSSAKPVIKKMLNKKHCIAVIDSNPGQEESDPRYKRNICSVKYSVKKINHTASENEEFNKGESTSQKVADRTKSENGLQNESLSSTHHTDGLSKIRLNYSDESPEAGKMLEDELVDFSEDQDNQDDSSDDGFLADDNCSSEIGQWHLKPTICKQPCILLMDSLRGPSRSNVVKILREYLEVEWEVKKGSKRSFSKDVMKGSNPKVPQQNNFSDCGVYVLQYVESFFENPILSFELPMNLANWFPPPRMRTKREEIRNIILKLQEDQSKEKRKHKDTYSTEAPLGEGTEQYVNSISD

[8] = biological target: T4, Sentrin-specific protease 8 (Homo sapiens, UniProt Q96LD8); format: functional
T4 sequence (Q96LD8 whole entry): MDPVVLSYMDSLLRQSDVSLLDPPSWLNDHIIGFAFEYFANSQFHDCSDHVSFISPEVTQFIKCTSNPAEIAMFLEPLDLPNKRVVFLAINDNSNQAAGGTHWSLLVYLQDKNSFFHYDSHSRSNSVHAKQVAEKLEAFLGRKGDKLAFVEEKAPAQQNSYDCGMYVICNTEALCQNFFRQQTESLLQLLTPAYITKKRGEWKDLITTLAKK

[9] = biological target: Dual specificity tyrosine-phosphorylation-regulated kinase 1A (Rattus norvegicus, UniProt Q63470); format: biochemical, Homo sapiens
[10] = biological target: T4, Sentrin-specific protease 8; format: functional; remark: listed apart in the source
[11] = biological target: T4, Sentrin-specific protease 8; format: functional; remark: listed apart in the source
Beta-galactosidase = Beta-galactosidase (Escherichia coli, UniProt Q8VNN2); test: Dose response counterscreen for EBI2 assay utilizing the enzyme, b-galactosidase.; format: functional
Chain of Beta-galactosidase (Q8VNN2 whole entry): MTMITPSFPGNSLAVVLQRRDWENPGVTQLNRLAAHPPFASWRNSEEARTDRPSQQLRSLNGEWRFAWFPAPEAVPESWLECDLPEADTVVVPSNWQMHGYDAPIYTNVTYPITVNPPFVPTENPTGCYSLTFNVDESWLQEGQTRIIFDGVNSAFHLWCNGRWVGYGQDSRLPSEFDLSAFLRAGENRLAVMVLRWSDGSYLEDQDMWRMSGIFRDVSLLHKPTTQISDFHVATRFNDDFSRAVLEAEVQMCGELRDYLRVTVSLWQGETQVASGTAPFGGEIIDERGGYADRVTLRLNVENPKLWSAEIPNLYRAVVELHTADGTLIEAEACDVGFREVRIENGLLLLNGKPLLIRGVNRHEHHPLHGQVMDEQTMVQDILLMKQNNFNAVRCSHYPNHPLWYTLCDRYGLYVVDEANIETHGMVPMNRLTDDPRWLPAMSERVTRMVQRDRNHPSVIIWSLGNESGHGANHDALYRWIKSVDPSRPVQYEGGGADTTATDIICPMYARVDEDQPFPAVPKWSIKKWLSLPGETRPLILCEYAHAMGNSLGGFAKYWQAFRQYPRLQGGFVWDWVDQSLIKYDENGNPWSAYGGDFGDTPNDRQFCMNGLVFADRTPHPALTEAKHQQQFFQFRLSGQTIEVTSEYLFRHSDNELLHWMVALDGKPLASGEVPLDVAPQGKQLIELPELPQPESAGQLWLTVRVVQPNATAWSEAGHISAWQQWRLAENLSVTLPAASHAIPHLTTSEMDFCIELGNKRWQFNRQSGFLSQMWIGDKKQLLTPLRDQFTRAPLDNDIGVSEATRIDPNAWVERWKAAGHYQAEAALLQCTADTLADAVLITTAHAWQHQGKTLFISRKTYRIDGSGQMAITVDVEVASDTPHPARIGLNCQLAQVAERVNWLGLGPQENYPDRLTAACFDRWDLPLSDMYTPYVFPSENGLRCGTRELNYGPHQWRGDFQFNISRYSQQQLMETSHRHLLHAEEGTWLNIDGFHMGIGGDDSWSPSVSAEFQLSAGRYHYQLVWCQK

[12] = viability of uninfected HEp-2 cells – cell-based, HTS, cytotoxicity control for RSV inhibitor project, dose response (AID 2410); format: functional; settings: human respiratory syncytial virus
Vero = test: cells; format: functional; settings: Chlorocebus sabaeus
INS1 = test: INS-1E survival protection against cytokine death – cell-based, luminescence, retest, dose response (AID 449756); format: functional; settings: Rattus norvegicus;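 also: cell death triggered by IL-1 beta plus TNF-alpha plus IFN-gamma mixture; protective hits raise ATP signal compared with cytokine alone wells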
SUMO-activating enzyme [13] = biological target: T5, SUMO-activating enzyme (Homo sapiens, UniProt Q9UBT2); test: blockers of UBC9-mediated SUMO conjugation – biochemical, AlphaScreen, SUMOylation inhibitor project, confirmation (AID 2018); format: functional
T5 sequence (Q9UBE0 whole entry): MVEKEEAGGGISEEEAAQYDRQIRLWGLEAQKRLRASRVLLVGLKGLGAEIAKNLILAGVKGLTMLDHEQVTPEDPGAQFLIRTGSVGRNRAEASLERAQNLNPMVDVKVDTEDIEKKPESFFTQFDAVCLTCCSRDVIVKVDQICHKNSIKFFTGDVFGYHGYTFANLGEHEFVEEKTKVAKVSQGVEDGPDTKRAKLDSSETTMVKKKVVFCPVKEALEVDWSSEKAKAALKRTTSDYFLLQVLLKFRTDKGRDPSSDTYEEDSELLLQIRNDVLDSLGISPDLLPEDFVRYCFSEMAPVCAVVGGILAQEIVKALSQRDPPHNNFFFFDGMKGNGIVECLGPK
T5 sequence (Q9UBT2 whole entry): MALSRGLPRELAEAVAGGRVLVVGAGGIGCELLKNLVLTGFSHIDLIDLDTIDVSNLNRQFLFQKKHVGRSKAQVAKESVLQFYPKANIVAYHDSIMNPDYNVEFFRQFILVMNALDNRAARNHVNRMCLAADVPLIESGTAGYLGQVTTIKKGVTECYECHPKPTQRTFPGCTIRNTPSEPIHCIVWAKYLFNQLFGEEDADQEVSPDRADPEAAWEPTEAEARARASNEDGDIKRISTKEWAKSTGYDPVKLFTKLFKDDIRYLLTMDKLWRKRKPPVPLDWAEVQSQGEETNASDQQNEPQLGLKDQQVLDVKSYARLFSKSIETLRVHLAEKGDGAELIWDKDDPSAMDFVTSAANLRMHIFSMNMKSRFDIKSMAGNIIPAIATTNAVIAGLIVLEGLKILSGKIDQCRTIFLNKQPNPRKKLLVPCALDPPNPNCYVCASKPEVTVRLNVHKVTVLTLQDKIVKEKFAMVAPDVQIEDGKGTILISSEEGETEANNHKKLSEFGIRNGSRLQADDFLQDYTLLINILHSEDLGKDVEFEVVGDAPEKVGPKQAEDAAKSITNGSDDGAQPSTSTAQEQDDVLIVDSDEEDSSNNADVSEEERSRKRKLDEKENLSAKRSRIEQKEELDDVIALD

SUMO-activating enzyme [14] = biological target: T5, SUMO-activating enzyme; test: blockers of SAE1/SAE2–UBC9 SUMO transfer – biochemical, HTRF, uHTS, primary screen (AID 2006); format: protein-complex assay
Mu-type opioid receptor = Mu-type opioid receptor (Homo sapiens, UniProt P35372); format: functional, cell-based;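 also: U2OS cells with beta-arrestin recruitment to OPRM1 by beta-gal complementation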
Chain of Mu-type opioid receptor (P35372 whole entry): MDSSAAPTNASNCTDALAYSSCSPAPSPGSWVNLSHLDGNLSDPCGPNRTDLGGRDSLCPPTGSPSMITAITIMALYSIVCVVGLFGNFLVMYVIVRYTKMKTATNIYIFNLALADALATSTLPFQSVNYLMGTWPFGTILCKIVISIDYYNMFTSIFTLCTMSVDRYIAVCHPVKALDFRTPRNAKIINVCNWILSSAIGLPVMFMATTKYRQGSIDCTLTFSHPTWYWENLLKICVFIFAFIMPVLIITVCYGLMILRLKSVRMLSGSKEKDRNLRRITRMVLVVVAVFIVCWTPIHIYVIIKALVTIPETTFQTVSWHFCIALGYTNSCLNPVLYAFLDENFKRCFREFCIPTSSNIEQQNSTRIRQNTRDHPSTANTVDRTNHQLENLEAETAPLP

SMILES: Cc1csc(NC(=O)Cc2nn(C)c(=O)c3ccccc23)n1
- AC50 [1]: 6.82 µM (active)
- AC50 [2]: 46.5 µM (active)
- AC50 [3]: 5.18 µM (active)

SMILES: COc1ccc(-c2nc3ccc(C)cc3c(=O)o2)cc1OC
- IC50 (cells): 7.49 µM (active)

SMILES: O=C(Nc1ccccc1)NC1CS(=O)(=O)CC1O (stereo not drawn)
- EC50 (Troponin, cardiac muscle): > 71.5 µM (inactive)

SMILES: O=C(Nc1ccc2c(c1)OCCO2)C1CCCN(S(=O)(=O)c2cccnc2)C1 (stereo not drawn)
- AC50 (Escherichia coli): 52.7 µM (active)

SMILES: COc1ccc(C(=O)/C=C/C(=O)N(CC(=O)NCCC(C)C)Cc2cccs2)c(O)c1
- AC50 [1]: 3.49 µM (active)
- AC50 [2]: 51.7 µM (active)
- AC50 [3]: 13.2 µM (active)

SMILES: O=C(NC1CC1)c1ccc(N2CCCCC2)c([N+](=O)[O-])c1
- AC50 (Escherichia coli): 73.1 µM (active)

SMILES: CCNc1nc2c(c(=O)n(C)c(=O)n2C)n1Cc1ccc(Cl)cc1
- IC50 [4]: 14.7 µM (inactive)

SMILES: NC(=O)NC(=O)COC(=O)c1cccc(NS(=O)(=O)/C=C/c2ccccc2)c1
- IC50 [5]: 50 µM (inactive)
- EC50 (Troponin, cardiac muscle): > 71.5 µM (inactive)

SMILES: CC1Cc2cc(/C=C3/SC(=S)NC3=O)ccc2O1 (stereo not drawn)
- IC50 (Caspase-3): 16.9 µM (active)
- IC50 [6]: 9.86 µM (active)
- IC50 [7]: 8.72 µM (active)
- IC50 [8]: 39.1 µM (active)
- IC50 (cells): 39.3 µM (active)
- AC50 [9]: 0.308 µM (active)

SMILES: CC(=O)c1c(C)[nH]c(C(=O)CSc2nnc3ccccn23)c1C
- AC50 (Escherichia coli): 27 µM (active)

SMILES: CCN1CCC2(CC1)N=C(c1ccc(F)cc1)C(=S)N2C(=O)c1ccc(C)cc1
- IC50 [10]: > 100 µM (inactive)
- IC50 [11]: 15.3 µM (active)

SMILES: O=C(COC(=O)c1ccc(O)cc1O)c1ccc2c(c1)OCO2
- IC50 (cells): 18.2 µM (active)

SMILES: CCOC(=O)N1CCN(C(=O)/C=C/c2ccc(C(C)(C)C)cc2)CC1
- IC50 (Beta-galactosidase): > 80 µM (inactive)

SMILES: Cc1nc([N+](=O)[O-])c(Sc2nc3ccccc3n2C)n1Cc1ccccc1
- CC50 [12]: 13.5 µM (active)
- CC50 (Vero): 20.8 µM (active)

SMILES: O=C(Nc1ccc(N2CCN(C(=O)c3ccccc3)CC2)cc1)c1ccc2c(c1)OCO2
- IC50 [4]: 13.3 µM (inactive)

SMILES: COCCC1CCCCN1C(=O)c1cc(COc2ccc(-n3cncn3)cc2)on1 (stereo not drawn)
- AC50 (INS1): 3.08 µM (active)
- AC50 [1]: 0.57 µM (active)
- AC50 [2]: 50.5 µM (active)
- AC50 [3]: 1.22 µM (active)

SMILES: NC(=O)CC(NC(=O)Cc1ccc(Br)cc1)c1ccc(N2CCC(Br)CC2)c([N+](=O)[O-])c1 (stereo not drawn)
- IC50 (SUMO-activating enzyme [13]): 28.3 µM (active)
- IC50 (SUMO-activating enzyme [14]): 34.5 µM (active)

SMILES: CSc1ccc(/C=C/C(=O)c2ccc(NC(=O)Cc3ccccc3)cc2)cc1
- IC50 (Beta-galactosidase): > 80 µM (inactive)

SMILES: O=C(Nc1cccc(Cl)c1)c1ccc(OC(=S)N2CCOCC2)cc1
- IC50 (Caspase-3): 31.4 µM (active)
- IC50 [6]: 2.85 µM (active)
- IC50 [7]: > 100 µM (inactive)
- IC50 [8]: > 100 µM (inactive)

SMILES: COc1cc(-c2nc3cc(C)ccn3c2NC2CCCCC2)ccc1-c1ccc(C(C)=O)cc1
- IC50 (Beta-galactosidase): 118 µM (inactive)

SMILES: Cc1cc(C)cc(NC(=O)CCc2nc3sc4c(c3c(=O)[nH]2)CCCC4)c1
- IC50 [4]: 0.277 µM (active)

SMILES: Cc1nc(C)c(-c2csc(Nc3ncccc3C)n2)s1
- IC50 (Caspase-3): 16.4 µM (active)
- IC50 [6]: 3.96 µM (active)
- IC50 [7]: 5.89 µM (active)
- IC50 [8]: > 100 µM (inactive)

SMILES: N#Cc1ccc(S(=O)(=O)NC2CCCCNC2=O)cc1 (stereo not drawn)
- EC50 (Troponin, cardiac muscle): > 71.4 µM (inactive)

SMILES: O=C(CSC1=NS(=O)(=O)c2ccccc2N1)N1CCCCC1
- EC50 (Troponin, cardiac muscle): > 71.5 µM (inactive)

SMILES: COc1ccc(-c2[nH]ncc2CNC(C)c2ccccc2Cl)cc1F (stereo not drawn)
- CC50 (Vero): > 25 µM (active)

SMILES: CCC(CO)Oc1cc(NCc2ccncc2)c2ncn(C(C)C)c2c1 (stereo not drawn)
- IC50 [10]: 37.6 µM (active)
- IC50 [11]: 24.5 µM (active)

SMILES: O=C(N/N=C/c1ccc([N+](=O)[O-])o1)c1ccncc1
- IC50 [10]: 39.9 µM (active)
- IC50 [11]: 35.3 µM (active)

SMILES: O=NN(CC(=O)NNc1ccccc1)CC(=O)NNc1ccccc1
- IC50 [4]: 18.3 µM (inactive)

SMILES: CCCN1C[C@H](CSC)C[C@@H]2c3cccc4[nH]cc(c34)C[C@H]21 [PERGOLIDE MESYLATE]
- EC50 (Mu-type opioid receptor): 92.5 µM (inactive)
